Source: US20090036464A1, “Treatment Of Posterior Capsule Opacification” (priority 2004, published 2009)

Columns and labels:
[1] = system: adult dermal microvascular endothelial cells; assay: MTS cell viability, rescue by sigma-1 agonists; assay type: cell-based, human; settings: co-administration of equimolar concentrations (10 μM) of sigma-1 agonist
Experimental: (§1) Human adult male dermal fibroblasts, adult mammary epithelial cells, adult dermal microvascular endothelial cells and bovine lens epithelial cells at low passage were exposed to 10 μM concentrations of the sigma-1 antagonists rimcazole and IPAG for up to 72 hours. Change in cell viability over time was measured in the MTS assay; data points represent mean values (±SD), obtained from wells in triplicate, expressed relative to baseline (pre-treatment) values. Graphs depict representative experiments, performed at least three times.

[2] = system: human lens cell line FHL124; assay: FHL124 cell growth patch assay; assay type: cell-based; settings: for growth of FHL124 cells: 4 days
Experimental: The effect of sigma ligands on human lens cell growth in FHL124 cell line maintained in serum-free media (A) or EMEM supplemented with 5% FCS (B). […] The cells were cultured for 4 days with experimental conditions. Experiments were repeated on 4 occasions. Data are expressed as Mean±S.E.M., the star represents significant difference from untreated control with rimcazole, and box represents significant difference from untreated control with (±)SKF 10047 (test p<0.05).
The effect of sigma-1 ligands on human lens cell growth in FHL 124 cell line maintained in serum-free media. A represents the data of patch area measurement. B represents the dye extraction from each stained patch, ie. cell number. The cells were cultured for 4 days with experimental conditions. Experiments were repeated on 4 occasions. Data are expressed as Mean±S.E.M, the star represents significant difference from untreated control with rimcazole, and ▪ represents significant difference from untreated control with (±)SKF10047 (test p<0.05).
The growth of the spontaneously immortal human lens cell line FHL124 was investigated using a patch assay. Cells grown from a single patch derived from a coverslip and stained with dye to estimate the cell number. […] (FIG. 6). […] Attenuation of rimcazole and BD-1047-mediated growth inhibition by a highly specific sigma-1 agonist confirms that growth inhibition is at least partly mediated through antagonism of sigma-1 sites.

[3] = system: bovine lens epithelial cells; assay: in vitro cell death assay (MTS cell viability) on tissue culture plastic; assay type: cell-based; settings: 10 μM, up to 72 hours, FIG. 1
Experimental: as §1

[4] = system: primary human lens epithelial cells on the posterior capsule; assay: pigmentation of lens cells during growth inhibition assays; assay type: cell-based; settings: sub-lethal dose (3 μM), control cells remained clear, FIG. 8, 9
Experimental: Phase micrographs of cultured human lens cells on central anterior (upper) and posterior capsule (lower) respectively. The cells were maintained in serum-free or supplemented (3 μM Rimcazole) media for one week. The images were converted to grayscale with Adobe photoshop software.
Formation of pigment granules in human epithelial cells. A. Different stages of pigment granule formation (I-IV) as defined in MNT-1 melanoma cells by Seiji et al. 1963. B. Cross section of human lens epithelial cells grown in (a) control medium and (b) the presence of 3 μM BD1047.
(§2) The bags were maintained in Eagle's minimum essential medium (EMEM) or EMEM supplemented with either 3 μM Rimcazole dihydrochloride (rimcazole), 10 μm(+)-SKF 10047 hydrochloride (SKF), and 3 μM or 10 μM BD1047 dihydrochloride (BD1047) (all supplied by TOCRIS) and incubate at 35° C. in a 5% CO2 atmosphere. The medium was replaced every 2 days and ongoing observations and analyses were performed as above.
This pigmentation was also present in cells similarly tested on the rhexis (anterior capsule) removed during preparation of the capsular bag (FIG. 8) and in the FHL-124 lens cell line (not shown). […]

[5] = system: human lens epithelial cells on the posterior capsule; assay: in vitro capsular bag growth assay (cell coverage of the posterior capsule); assay type: cell-based; settings: for growth of human lens cells on the posterior capsule: 3 μm, FIG. 2, FIG. 3
Experimental: Rate of cell coverage of the posterior capsule beyond the rhexis; 100% represents confluency. Experiments were repeated on 4 occasions. The means and standard errors are display ed.
(§3) Rate of cell coverage of the posterior capsule beyond the rhexis; 100% represents confluency. Experiments were repeated on 4 occasions.
The model previously described by Liu et al (1996) was used. A sham cataract operation was performed on human donor eyes. The resultant capsular bag was then dissected free of the zonules and secured on a sterile 35 mm PMMA petri dish. Eight entomological pins (D1: Watkins and Doncaster Ltd., Kent, UK) were inserted through the edge of the capsule to retain its circular shape. Incubation was at 35° C. in a 5% CO2 atmosphere. Ongoing observations were performed with a Nikon phase-contrast microscope and images captured with a digital camera (Coolpix 950; Nikon. Tokyo, Japan) with associated imaging software (a person, personal communication). In some cases preparations were used for radioactive isotope studies.
as §2

tumour cells = assay: tumour cell growth inhibition / killing; assay type: cell-based, human; settings: read-out: IC50 (concentration of drug required to produce 50% growth inhibition) for tumour cells
From the text: It has therefore been proposed that the subcellular localisation of the sigma receptor may contribute to the degree of susceptibility to sigma ligands (Spruce et al Cancer Research 2004). Without wishing to be bound by theory, the present inventors postulated that differential subcellular localisation of the sigma receptor, or other factors, could lead to sigma ligands being differentially potent in lens epithelial cells compared to tumour cells. […] Specifically, the IC50 (the concentration of drug required to produce 50% growth inhibition) of BD-1047 for tumour cells is in the region 50-100 micromolar; in contrast, the IC50 for human lens epithelial cells (in the capsular bag system) is in the region of 10 micromolar.
as §3

[6] = system: lens epithelial cells in the presence of the bovine capsule; settings: versus cells cultured in isolation; cited from earlier work
[7] = system: human lens epithelial cells; assay: efflux of radioactive isotopes (3H-dopamine, 14C-tyrosine) in capsular bags; assay type: cell-based; settings: capsular bag system, 3 μM rimcazole
Experimental: Efflux of (A) ^3H-dopamine and (B) ^14C-tyrosine from human lens epithelial cells in control (SF) and rimcazole supplemented media. Data are presented as mean±6 separate experiments.
Capsular bags were maintained in Eagle's minimum essential medium (EMEM) or EMEM supplemented with 3 μM. Rimcazole dihydrochloride (rimcazole) (TOCRIS) for 7 days (when the pigment granules could be observed in cells). 1 μCl/ml of ^3H-dopamine and 2 μCi/ml of ^14C-tyrosine (Amersham Biosciences) were then added to each dish for an additional 24 hours. At the end point, 10 μl of medium were collected from each dish, and transferred into scintillation vials. The bags were washed briefly twice with EMEM and fresh control or experimental media added for one hour. The medium was then collected into scintillation vials and the procedure repeated eights times. The experiment was then terminated by adding 1 ml of ice-cold 5% Trichloroacetic acid (TCA) (Fisher Chemicals) to each dish. After 30 minutes, the TCA was removed from each well to determine the cytosolic dopamine and tyrosine levels. 1 ml of 250 mM NaOH was then added to each dish to determine the radio-isotope levels in the TCA precipitable fraction. 10 mls of scintillation fluid (Hisafe Supermix) were then added to each scintillation vial and the samples assayed using a Wallac scintillation counter with appropriate background controls. […]

C=CCN1CCC2(C)c3cc(O)ccc3CC1C2C.Cl (single isomer, unassigned; (+)) [(+)-SKF10047, (+)-SKF 10047 hydrochloride]
protection of microvascular endothelial cells from rimcazole and IPAG [1]: protected
rescue of sigma antagonist (rimcazole)-mediated growth inhibition of FHL124 cells ([2]; both concentrations, serum free medium, FIG. 5): partially rescues
restoration of growth to BD1047 inhibited FHL124 cells ([2]; higher concentrations of BD1047 (10 and 30 μm), FIG. 6): partially restores growth

NC(=NC1C2CC3CC(C2)CC1C3)Nc1ccc(I)cc1 (centres unmarked) [IPAG]
susceptibility of primary bovine lens cells in tissue culture compared with tumour cells [3]: almost as susceptible

CN(C)CCN(C)CCc1ccc(Cl)c(Cl)c1 [BD1047]
pigmentation of primary human lens epithelial cells [4]: become pigmented
growth of human lens cells on the posterior capsule [5]: less inhibitory
growth of lens cells on the capsule ([5]; 10 μm, FIG. 4): potently inhibits growth
IC50 ([5]; in the capsular bag system): ~10 µM
IC50 (tumour cells): 50 to 100 µM
growth inhibition of FHL124 cells (patch size, protein content) ([2]; lower dose (10 μm), serum-free, FIG. 6): less effective

C[C@@H]1CN(CCCn2c3ccccc3c3ccccc32)C[C@H](C)N1 [Rimcazole]
pigmentation of primary human lens epithelial cells [4]: become pigmented
ability to induce apoptosis in lens epithelial cells [6]: substantially less able to induce apoptosis
dopamine efflux ([7]; FIG. 10A): unaffected
efflux of 14C-tyrosine from lens cells ([7]; FIG. 10B): no effect
susceptibility of primary bovine lens cells in tissue culture compared with tumour cells [3]: almost as susceptible
growth of human lens cells on the posterior capsule [5]: inhibits growth
cell killing in human lens epithelial cells ([5]; contained in the human capsular bag system): potently induces cell killing
growth of FHL124 cells ([2]; 3 and 10 μm, serum free medium, FIG. 5): significantly inhibited
growth of FHL124 cells ([2]; 5% FCS, higher dose (10 μm), FIG. 5): growth inhibition is less marked

CC(C)=CCN1CCC2(C)c3cc(O)ccc3CC1C2C (single isomer, unassigned; (+)) [(+)-pentazocine]
protection of microvascular endothelial cells from rimcazole and IPAG [1]: protected
